Source: patent US9249131B2, “Modulators of ATP-binding cassette transporters” (Vertex Pharmaceuticals Incorporated, priority 2003, dated 2016)

Target: T1, ΔF508-CFTR (Homo sapiens, UniProt P13569, DEL508-508)
T1 construct: expressed in transfected cells; host or cells: NIH3T3 mouse fibroblasts stably expressing ΔF508-CFTR for the optical, whole-cell and single-channel assays; Fisher rat epithelial (FRT) cells for Ussing chamber follow-up
Experiment: Assays for ΔF508-CFTR correction and potentiator properties (membrane potential optical and electrophysiological methods)
Format: cell-based
Conditions: CFTR modulation; for % Activity: % Efficacy; for EC50: tested using the above methods
How it was run: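 NIH3T3 mouse fibroblasts stably expressing ΔF508-CFTR were used, with membrane potential read by DiSBAC2(3)/CC2-DMPE FRET on VIPR. Correctors: 16 h compound exposure at 37 °C, then activation with forskolin plus genistein in Cl⁻-free medium. Potentiators: cells held 24 h at 27 °C, compound added in Cl⁻-free medium, 2-10 μM forskolin 22 s later (final Cl⁻ 28 mM).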

T1 sequence (P13569 with tags, fused parts or gaps DEL508-508): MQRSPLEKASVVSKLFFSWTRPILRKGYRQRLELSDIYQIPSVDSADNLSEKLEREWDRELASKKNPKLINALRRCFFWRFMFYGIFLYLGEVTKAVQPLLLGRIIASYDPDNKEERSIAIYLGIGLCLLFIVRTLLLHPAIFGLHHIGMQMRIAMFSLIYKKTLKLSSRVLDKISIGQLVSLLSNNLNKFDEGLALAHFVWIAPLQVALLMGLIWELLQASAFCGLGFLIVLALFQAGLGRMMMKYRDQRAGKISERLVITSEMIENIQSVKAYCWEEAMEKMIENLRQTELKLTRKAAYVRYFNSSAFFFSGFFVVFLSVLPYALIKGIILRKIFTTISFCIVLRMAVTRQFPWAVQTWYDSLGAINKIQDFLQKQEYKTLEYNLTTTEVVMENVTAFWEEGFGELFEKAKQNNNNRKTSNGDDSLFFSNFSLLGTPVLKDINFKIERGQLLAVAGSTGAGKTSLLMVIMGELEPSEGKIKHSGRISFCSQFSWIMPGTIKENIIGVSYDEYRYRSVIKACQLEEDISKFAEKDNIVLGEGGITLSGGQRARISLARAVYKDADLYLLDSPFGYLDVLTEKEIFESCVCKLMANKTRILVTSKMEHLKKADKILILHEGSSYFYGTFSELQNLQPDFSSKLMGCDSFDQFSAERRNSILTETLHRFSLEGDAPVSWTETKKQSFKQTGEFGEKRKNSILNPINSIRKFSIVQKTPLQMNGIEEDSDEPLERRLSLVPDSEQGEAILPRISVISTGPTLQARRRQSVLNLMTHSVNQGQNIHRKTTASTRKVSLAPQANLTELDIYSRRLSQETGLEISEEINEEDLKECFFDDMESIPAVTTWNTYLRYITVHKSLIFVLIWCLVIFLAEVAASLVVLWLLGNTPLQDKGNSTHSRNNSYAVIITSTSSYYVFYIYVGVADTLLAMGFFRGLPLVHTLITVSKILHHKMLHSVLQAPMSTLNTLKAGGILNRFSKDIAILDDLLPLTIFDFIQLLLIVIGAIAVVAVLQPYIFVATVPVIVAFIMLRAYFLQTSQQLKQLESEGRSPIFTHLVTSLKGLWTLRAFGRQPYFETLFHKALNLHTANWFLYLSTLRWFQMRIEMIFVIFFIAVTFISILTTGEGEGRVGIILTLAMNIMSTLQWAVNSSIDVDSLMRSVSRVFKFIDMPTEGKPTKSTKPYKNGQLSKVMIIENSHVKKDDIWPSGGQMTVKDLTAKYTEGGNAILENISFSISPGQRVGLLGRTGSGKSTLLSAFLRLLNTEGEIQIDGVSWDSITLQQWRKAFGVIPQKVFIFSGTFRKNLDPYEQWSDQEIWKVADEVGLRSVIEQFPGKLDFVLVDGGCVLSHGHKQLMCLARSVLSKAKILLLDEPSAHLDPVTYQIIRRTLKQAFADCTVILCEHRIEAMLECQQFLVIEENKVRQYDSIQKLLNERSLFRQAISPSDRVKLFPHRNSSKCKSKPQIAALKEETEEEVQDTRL

% Activity	EC50	SMILES
++ (“++” means between 25% to 100%)	< 10 µM	CN(C1CCCCC1)C(C(=O)Nc1ncc(Cc2ccccc2Cl)s1)c1ccccc1 (stereo not drawn) [compound 240]
++ (“++” means between 25% to 100%)	10 to 25 µM	CC(C(=O)Nc1nc(-c2ccccc2)cs1)c1ccccc1 (stereo not drawn) [compound 166]
++ (“++” means between 25% to 100%)	25 to 60 µM	CN(C)C(Cc1ccccc1)C(=O)Nc1ncc(Cc2ccccc2C#N)s1 (stereo not drawn) [compound 277]
+++ (“+++” means >100%)	< 10 µM	CC(C)CC(=O)Nc1nc(-c2ccccc2)c(-c2ccccc2)s1 [compound 110]
+++ (“+++” means >100%)	< 10 µM	COc1ccccc1C(=O)Nc1nc(-c2ccccc2)c(-c2ccccc2)s1 [compound 51]
++ (“++” means between 25% to 100%)	10 to 25 µM	O=C(Nc1ncc(Cc2ccccc2)o1)c1ccccc1 [compound 141]
++ (“++” means between 25% to 100%)	< 10 µM	O=C(Nc1nc(-c2ccccc2)c(-c2ccccc2)s1)c1ccccc1 [compound 68]
++ (“++” means between 25% to 100%)	< 10 µM	Cc1ccccc1C(=O)Nc1nc(-c2ccccc2)c(-c2ccccc2)s1 [compound 71]
+++ (“+++” means >100%)	< 10 µM	O=C(Nc1ncc(Cc2ccccc2)s1)C1c2ccccc2Oc2ccccc21 [compound 89]
++ (“++” means between 25% to 100%)	< 10 µM	CC(C(=O)Nc1ncc(Cc2cccc(Cl)c2)s1)c1ccccc1 (stereo not drawn) [compound 127]
++ (“++” means between 25% to 100%)	25 to 60 µM	CCC(C(=O)Nc1ncc(Cc2ccccc2Cl)o1)c1ccccc1 (stereo not drawn) [compound 190]
++ (“++” means between 25% to 100%)	< 10 µM	O=C(Nc1ncc(Cc2ccc(Cl)cc2)o1)C(c1ccccc1)C1CCCCC1 (stereo not drawn) [compound 142]
++ (“++” means between 25% to 100%)	< 10 µM	O=C(Nc1nc(-c2ccccc2)c(-c2ccccc2)s1)c1cccc(Cl)c1 [compound 106]
++ (“++” means between 25% to 100%)	< 10 µM	CC(C)C(=O)Nc1nc(-c2ccccc2)c(-c2ccccc2)s1 [compound 109]
++ (“++” means between 25% to 100%)	25 to 60 µM	CCC(C(=O)Nc1ncc(Cc2ccccc2OC)o1)c1ccccc1 (stereo not drawn) [compound 183]
+++ (“+++” means >100%)	10 to 25 µM	CCCc1ccc(C(=O)Nc2nc3ccccc3s2)cc1 [compound 11]
++ (“++” means between 25% to 100%)	< 10 µM	CC[C@@H](C(=O)Nc1ncc(Cc2cccc(Cl)c2)s1)c1ccccc1 [compound 203]
+++ (“+++” means >100%)	< 10 µM	O=C(Nc1nc(-c2ccccc2)c(-c2ccccc2)s1)C1CCCO1 (stereo not drawn) [compound 115]
+++ (“+++” means >100%)	< 10 µM	Cc1ccc(C(=O)Nc2nc(-c3ccccc3Cl)cs2)cc1 [compound 230]
+++ (“+++” means >100%)	< 10 µM	O=C(Nc1ncc(Cc2ccc(Cl)cc2)s1)C(c1ccccc1)C1CCCCC1 (stereo not drawn) [compound 117]

% Activity	EC50	SMILES
+++ (“+++” means >100%)	< 10 µM	COc1ccccc1Cc1cnc(NC(=O)C(C)(C)c2ccccc2)s1 [compound 237]
+++ (“+++” means >100%)	< 10 µM	CCC(C(=O)Nc1ncc(Cc2ccccc2Cl)s1)c1ccccc1 (stereo not drawn) [compound 97]
++ (“++” means between 25% to 100%)	< 10 µM	O=C(Nc1ncc(Cc2ccccc2Cl)s1)C(c1ccccc1)N1CCCCC1 (stereo not drawn) [compound 215]
++ (“++” means between 25% to 100%)	10 to 25 µM	COc1ccccc1Cc1cnc(NC(=O)c2ccccc2)o1 [compound 185]
++ (“++” means between 25% to 100%)	25 to 60 µM	CC(CC(=O)Nc1ncc(Cc2ccccc2C#N)s1)c1ccccc1 (stereo not drawn) [compound 276]
++ (“++” means between 25% to 100%)	< 10 µM	O=C(Nc1ncc(Cc2ccc(Cl)cc2)s1)C(c1ccccc1)c1ccccc1 [compound 38]
++ (“++” means between 25% to 100%)	< 10 µM	CCC(C(=O)Nc1nc2cccc(C)c2s1)c1ccccc1 (stereo not drawn) [compound 268]
++ (“++” means between 25% to 100%)	25 to 60 µM	CNC(C(=O)Nc1ncc(Cc2ccccc2Cl)s1)c1ccccc1 (stereo not drawn) [compound 217]
++ (“++” means between 25% to 100%)	< 10 µM	O=C(Nc1ncc(Cc2ccccc2Cl)s1)C(c1ccc(Cl)cc1)c1ccc(Cl)cc1 [compound 95]
++ (“++” means between 25% to 100%)	< 10 µM	CC1CCN(C(C(=O)Nc2ncc(Cc3ccccc3Cl)s2)c2ccccc2)CC1 (stereo not drawn) [compound 246]
+++ (“+++” means >100%)	< 10 µM	CC(C(=O)Nc1ncc(Cc2ccc(Cl)cc2)s1)c1ccccc1 (stereo not drawn) [compound 119]
++ (“++” means between 25% to 100%)	< 10 µM	O=C(Nc1ncc(Cc2ccc(Cl)cc2)o1)C(c1ccccc1)C1CCCC1 (stereo not drawn) [compound 148]
+++ (“+++” means >100%)	< 10 µM	O=C(Nc1ncc(Cc2ccc(Cl)cc2)s1)C(c1ccccc1)C1CCCC1 (stereo not drawn) [compound 122]
+++ (“+++” means >100%)	< 10 µM	O=C(Nc1ncc(Cc2ccccc2Cl)s1)C(c1ccccc1)C1CCCC1 (stereo not drawn) [compound 102]
++ (“++” means between 25% to 100%)	< 10 µM	O=C(Nc1ncc(Cc2cccc(Cl)c2)s1)c1ccccc1 [compound 23]
+++ (“+++” means >100%)	< 10 µM	Cc1ccc(-c2csc(NC(=O)c3ccccc3)n2)c(C)c1 [compound 2]
++ (“++” means between 25% to 100%)	< 10 µM	CCC(C(=O)Nc1ncc(Cc2ccccc2Cl)s1)c1ccc(OC)cc1 (stereo not drawn) [compound 270]
++ (“++” means between 25% to 100%)	< 10 µM	O=C(Nc1nc(-c2ccccc2)c(-c2ccccc2)s1)C1CCOC1 (stereo not drawn) [compound 116]
+++ (“+++” means >100%)	< 10 µM	CCCCc1ccc(C(=O)Nc2nc3ccccc3s2)cc1 [compound 12]
+++ (“+++” means >100%)	< 10 µM	O=C(Nc1ncc(Cc2ccccc2)s1)C1c2ccccc2-c2ccccc21 [compound 93]

% Activity	EC50	SMILES
++ (“++” means between 25% to 100%)	10 to 25 µM	N#CCC(=O)Nc1ncc(Cc2cccc(Cl)c2)s1 [compound 36]
++ (“++” means between 25% to 100%)	10 to 25 µM	CC(C)C(C(=O)Nc1ncc(Cc2ccccc2Cl)o1)c1ccccc1 (stereo not drawn) [compound 193]
++ (“++” means between 25% to 100%)	< 10 µM	O=C(Nc1ncc(Cc2cccc(Cl)c2Cl)s1)C(c1ccccc1)c1ccccc1 [compound 56]
++ (“++” means between 25% to 100%)	< 10 µM	CCC(C(=O)Nc1ncc(Cc2ccccc2OC)s1)c1ccccc1 (stereo not drawn) [compound 136]
++ (“++” means between 25% to 100%)	< 10 µM	CCN(CC)C(C(=O)Nc1ncc(Cc2ccccc2Cl)s1)c1ccccc1 (stereo not drawn) [compound 212]
++ (“++” means between 25% to 100%)	10 to 25 µM	Cc1cccc(C(=O)Nc2ncc(-c3ccccc3)s2)c1 [compound 226]
++ (“++” means between 25% to 100%)	< 10 µM	CCC(C(=O)Nc1ncc(Cc2ccccc2Cl)n1C)c1ccccc1 (stereo not drawn) [compound 278]
+++ (“+++” means >100%)	< 10 µM	CC(C)C(C(=O)Nc1ncc(Cc2ccccc2Cl)s1)c1ccccc1 (stereo not drawn) [compound 103]
++ (“++” means between 25% to 100%)	< 10 µM	O=C(Cc1ccccc1)Nc1ncc(Cc2cccc(Cl)c2)o1 [compound 157]
++ (“++” means between 25% to 100%)	10 to 25 µM	O=C(Nc1nc(-c2ccccc2)cs1)c1ccccc1 [compound 21]
++ (“++” means between 25% to 100%)	10 to 25 µM	O=C(O)c1ccccc1C(=O)Nc1nc(-c2ccccc2)c(-c2ccccc2)s1 [compound 59]
++ (“++” means between 25% to 100%)	10 to 25 µM	CCC(C)C(C(=O)Nc1ncc(Cc2ccccc2)o1)c1ccccc1 (stereo not drawn) [compound 100]
++ (“++” means between 25% to 100%)	< 10 µM	O=C(Nc1ncc(Cc2ccccc2)o1)C(c1ccccc1)C1CCCCC1 (stereo not drawn) [compound 92]
++ (“++” means between 25% to 100%)	< 10 µM	O=C(Nc1ncc(Cc2ccccc2Cl)s1)C(c1ccccc1)N1CCN(c2ncccn2)CC1 (stereo not drawn) [compound 249]
++ (“++” means between 25% to 100%)	< 10 µM	CN(Cc1ccccc1)C(C(=O)Nc1ncc(Cc2ccccc2Cl)s1)c1ccccc1 (stereo not drawn) [compound 254]
+++ (“+++” means >100%)	< 10 µM	O=C(Nc1nc(-c2ccccc2)c(-c2ccccc2)s1)C1CC1 [compound 111]
++ (“++” means between 25% to 100%)	25 to 60 µM	O=C(Nc1ncc(-c2ccccc2)s1)c1cccc(Cl)c1 [compound 233]
++ (“++” means between 25% to 100%)	< 10 µM	O=C(Nc1ncc(Cc2ccccc2)s1)C(c1ccccc1)c1ccccc1 [compound 25]
++ (“++” means between 25% to 100%)	25 to 60 µM	COc1ccccc1Cc1cnc(NC(=O)C(C)c2ccccc2)o1 (stereo not drawn) [compound 182]
++ (“++” means between 25% to 100%)	< 10 µM	CC(C)C(C(=O)Nc1nc(-c2ccccc2)cs1)c1ccccc1 (stereo not drawn) [compound 168]
